These results are taken from patent US8815295B1, “Anti respiratory syncytial virus peptide functionalized gold nanoparticles” (Alabama State University, priority 2011, dated 2014).

The subject of this series is human epidermoid cancer (HEp-2) cells. Kind of series: MTT cell viability (cytotoxicity) assay. Conditions: 24 and 48 hours, concentrations up to 50 μg/ml. The method, then:
The peptides and carboxylated gold nanoparticles were tested for cytotoxic effects on human epidermoid cancer (HEp-2) cells. Cell viability was assessed by measuring cell concentration of a tetrazolium salt (3-(4,5 dimethyl-2-yl)-5-(3-carboxy-methoxyphenyl)-2-(4-sulfophenyl)-2H-tetrazolium) […]. If cells are viable the mitochondria will reduce the MTT. The cells were grown overnight in minimal essential medium (MEM) supplemented with L-glutamine, Penicillin, streptomycin, and kanamycin. 2.7×10^5 cells/well in 100 μl were seeded into 96-well plates in MEM. Cells were allowed to grow overnight in an incubator at 37° C., with a 5% CO2 humidified atmosphere, until the carboxylated gold nanoparticles were added. […] Treated cells were further incubated at 37° C., 5% CO2 for 24, and 48 hours. At the end of the corresponding incubation time, 15 μl of MTT dye was added into each well and the plates were allowed to incubate for the next 4 hours in the dark. The reaction was then stopped with 100 μl of stop solution. The absorbance of the media was measured at 570 nm on a TECAN Sunrise enzyme-linked immunosorbent assay plate reader (TECAN, US Inc., Durham, N.C., USA). Non-treated cells in growth media were used as a control.

Peptide text beside a SMILES is read from it.

As for `CC[C@H](C)[C@H](NC(=O)[C@H](Cc1ccccc1)NC(=O)[C@H](C)NC(=O)[C@H](CC(C)C)NC(=O)[C@H](CO)NC(=O)[C@H](CCC(N)=O)NC(=O)[C@H](CC(N)=O)NC(=O)[C@@H](NC(=O)[C@H](CCCCN)NC(=O)[C@H](CCC(=O)O)NC(=O)[C@H](CC(N)=O)NC(=O)[C@@H](NC(=O)[C@H](CCC(N)=O)NC(=O)[C@H](CO)NC(=O)[C@@H](NC(=O)[C@@H](N)CO)[C@@H](C)CC)C(C)C)[C@@H](C)CC)C(=O)N[C@@H](CCCNC(=N)N)C(=O)N[C@@H](CCCCN)C(=O)N[C@@H](CO)C(=O)N[C@@H](CC(=O)O)C(=O)O` [RF491] (H-SISQVNEKINQSLAFIRKSD-OH), the “effect on cell viability” value is “no significant effect”.
Consider “VFPSDEFDASISQVNEKINQSLAFIRKSDLLHNVNAGKK (respiratory syncytial virus) [RF482]”, for which the “effect on cell viability” value was “no significant effect”.
